pEC50, pIC50: −log10 of the molar value. In brackets after ≈: the same amount, converted by molar mass. Blank lines part the entries; values can stand above or below the molecule they belong to. Activity calls are given as the source filed them. No cut-off for these calls is given here.
Key:
[1] = target: T1, Metabotropic glutamate receptor 5 (Homo sapiens, UniProt P41594); experiment: Positive allosteric modification of human recombinant mGlu5 receptor expressed in U2OS cells assessed as potentiation of glutamate-induced Ca2+ flux in presence of EC20 glutamate; assay type: functional, cell-based
Target sequence in this assay (P41594 whole entry): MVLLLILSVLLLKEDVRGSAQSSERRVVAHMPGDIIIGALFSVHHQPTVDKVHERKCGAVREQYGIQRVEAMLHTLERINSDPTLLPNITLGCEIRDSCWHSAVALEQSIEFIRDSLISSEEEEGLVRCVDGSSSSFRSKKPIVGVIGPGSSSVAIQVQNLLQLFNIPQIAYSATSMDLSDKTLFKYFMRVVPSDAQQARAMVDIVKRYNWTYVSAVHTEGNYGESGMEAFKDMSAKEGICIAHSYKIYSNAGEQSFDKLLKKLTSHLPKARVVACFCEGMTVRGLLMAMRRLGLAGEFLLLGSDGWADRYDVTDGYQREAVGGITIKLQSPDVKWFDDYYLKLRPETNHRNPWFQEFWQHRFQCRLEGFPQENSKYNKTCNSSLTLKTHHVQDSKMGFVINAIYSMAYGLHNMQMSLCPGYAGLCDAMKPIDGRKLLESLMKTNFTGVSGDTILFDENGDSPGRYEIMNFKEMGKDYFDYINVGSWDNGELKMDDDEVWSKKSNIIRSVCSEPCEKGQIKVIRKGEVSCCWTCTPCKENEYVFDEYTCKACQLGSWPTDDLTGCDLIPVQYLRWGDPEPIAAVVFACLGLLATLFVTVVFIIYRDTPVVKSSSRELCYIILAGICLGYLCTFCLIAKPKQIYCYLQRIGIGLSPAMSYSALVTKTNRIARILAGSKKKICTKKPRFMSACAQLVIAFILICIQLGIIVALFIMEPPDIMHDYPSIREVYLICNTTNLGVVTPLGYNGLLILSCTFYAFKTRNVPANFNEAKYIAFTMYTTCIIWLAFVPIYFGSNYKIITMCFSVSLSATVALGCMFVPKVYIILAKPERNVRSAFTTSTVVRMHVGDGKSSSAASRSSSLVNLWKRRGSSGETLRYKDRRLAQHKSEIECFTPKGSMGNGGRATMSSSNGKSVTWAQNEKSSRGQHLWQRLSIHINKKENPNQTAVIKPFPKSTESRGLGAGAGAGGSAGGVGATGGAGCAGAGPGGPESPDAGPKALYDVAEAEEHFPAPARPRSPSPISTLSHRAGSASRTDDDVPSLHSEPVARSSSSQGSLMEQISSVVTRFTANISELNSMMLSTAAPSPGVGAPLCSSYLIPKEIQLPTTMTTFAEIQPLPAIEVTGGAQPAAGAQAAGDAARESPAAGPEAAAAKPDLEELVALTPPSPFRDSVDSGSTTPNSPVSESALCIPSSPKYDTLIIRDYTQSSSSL

[2] = target: T1, Metabotropic glutamate receptor 5; experiment: Positive allosteric modification of human recombinant mGlu5 receptor expressed in U2OS cells assessed as Ca2+ flux upto 25 uM relative to glutamate; assay type: functional, cell-based
Target sequence in this assay (P41594 21-1212 limits assumed): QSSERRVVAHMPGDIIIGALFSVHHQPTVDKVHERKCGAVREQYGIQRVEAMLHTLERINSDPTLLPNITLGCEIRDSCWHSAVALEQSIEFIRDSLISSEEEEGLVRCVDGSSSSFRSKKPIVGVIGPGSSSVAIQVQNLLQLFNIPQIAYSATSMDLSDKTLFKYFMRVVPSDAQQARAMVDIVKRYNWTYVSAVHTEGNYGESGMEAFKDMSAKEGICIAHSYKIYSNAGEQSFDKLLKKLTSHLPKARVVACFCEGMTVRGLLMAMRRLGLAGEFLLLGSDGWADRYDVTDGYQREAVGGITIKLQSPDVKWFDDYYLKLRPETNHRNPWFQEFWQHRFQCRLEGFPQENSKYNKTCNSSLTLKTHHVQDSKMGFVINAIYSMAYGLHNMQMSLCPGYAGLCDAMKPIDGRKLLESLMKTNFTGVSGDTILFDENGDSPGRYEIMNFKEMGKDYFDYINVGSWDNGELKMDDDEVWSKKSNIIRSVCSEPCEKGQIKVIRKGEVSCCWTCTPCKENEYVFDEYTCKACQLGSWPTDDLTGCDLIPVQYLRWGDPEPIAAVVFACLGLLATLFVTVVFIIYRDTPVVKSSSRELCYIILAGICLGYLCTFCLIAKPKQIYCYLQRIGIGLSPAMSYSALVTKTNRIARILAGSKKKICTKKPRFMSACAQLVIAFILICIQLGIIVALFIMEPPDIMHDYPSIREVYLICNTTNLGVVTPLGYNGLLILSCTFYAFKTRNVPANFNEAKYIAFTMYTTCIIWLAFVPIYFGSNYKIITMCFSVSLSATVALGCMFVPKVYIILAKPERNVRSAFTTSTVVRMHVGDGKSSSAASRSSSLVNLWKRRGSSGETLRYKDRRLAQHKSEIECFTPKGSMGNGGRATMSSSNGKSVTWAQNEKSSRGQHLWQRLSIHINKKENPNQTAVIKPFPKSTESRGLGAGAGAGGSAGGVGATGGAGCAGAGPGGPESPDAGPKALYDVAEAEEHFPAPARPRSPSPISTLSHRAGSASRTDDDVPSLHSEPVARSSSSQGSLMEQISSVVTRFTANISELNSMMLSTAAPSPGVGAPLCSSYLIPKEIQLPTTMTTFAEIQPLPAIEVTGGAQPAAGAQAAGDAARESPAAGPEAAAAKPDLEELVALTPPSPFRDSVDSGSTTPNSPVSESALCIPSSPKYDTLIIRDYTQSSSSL

[3] = target: Metabotropic glutamate receptor 5 (Rattus norvegicus) (UniProt P31424); experiment: Positive allosteric modification of mGlu5 receptor in rat cortical astrocytes assessed as maximal leftward shift in the EC50 of glutamate induced response upto 25 uM; assay type: cell-based
[4] = Intrinsic clearance in rat liver microsomes at 3 uM; assay type: ADME; conditions: read-out: CLH
MDCK [5] = experiment: Efflux ratio of permeability from apical to basolateral side to basolateral to apical side in MDCK cells; assay type: ADME, cell-based, Canis lupus familiaris; conditions: dog
[6] = Half life in Sprague-Dawley rat at 3 mg/kg, po; assay type: ADME, organism-based; conditions: in vivo
Homo sapiens [7] = species: Homo sapiens; experiment: Agonist activity at mGlu receptor (unknown origin)
[8] = Intrinsic clearance in human liver microsomes at 3 uM; assay type: ADME; conditions: read-out: CLH
Rattus norvegicus = experiment: Cognitive enhancing effect in po dosed rat measured after 4 hrs by novel object recognition test; assay type: functional; conditions: for minimal effective dose: Rattus norvegicus, po, 4 h, read-out: MED
[9] = Fraction unbound in rat brain; assay type: ADME, tissue-based
[10] = Clearance in Sprague-Dawley rat at 0.25 mg/kg, iv; assay type: ADME, organism-based; conditions: in vivo
[11] = Oral bioavailability in Sprague-Dawley rat at 3 mg/kg; assay type: ADME, organism-based; conditions: in vivo
[12] = Brain to plasma ratio in Sprague-Dawley rat at 3 mg/kg, po; assay type: ADME, organism-based; conditions: brain and plasma, read-out: BPR
[13] = Kinetic solubility of compound in phosphate buffer saline at pH 7.4; assay type: physicochemical; conditions: for solubility kinetic: phosphate buffered saline, read-out: Kinetic_solubility
[14] = Inhibition of CYP450 (unknown origin); assay type: ADME; conditions: human
MDCK [15] = experiment: Permeability from apical to basolateral side in MDCK cells at 1 uM; assay type: ADME, cell-based, Canis lupus familiaris; conditions: dog
Homo sapiens [16] = species: Homo sapiens; experiment: Positive allosteric modification of mGlu receptor (unknown origin)
[17] = Cmax in Sprague-Dawley rat plasma at 3 mg/kg, po; assay type: ADME, organism-based; parameters: dose 3 mg/kg, route oral
[18] = Volume of distribution at steady state in Sprague-Dawley rat at 0.25 mg/kg, iv; assay type: ADME, organism-based; conditions: in vivo, read-out: Vdss
Homo sapiens [19] = species: Homo sapiens; experiment: Negative allosteric modification of mGlu receptor (unknown origin)
[20] = Tmax in Sprague-Dawley rat at 3 mg/kg, po; assay type: ADME, organism-based; conditions: in vivo
[21] = Volume of distribution at steady state in Sprague-Dawley rat at 0.5 mg/kg, iv; assay type: ADME, organism-based; conditions: in vivo, read-out: Vdss
[22] = Clearance in Sprague-Dawley rat at 0.5 mg/kg, iv; assay type: ADME, organism-based; conditions: in vivo
[23] = target: Voltage-gated inwardly rectifying potassium channel KCNH2 (Homo sapiens, UniProt Q12809); experiment: Inhibition of human ERG
Sequence of Voltage-gated inwardly rectifying potassium channel KCNH2 (Q12809 whole entry): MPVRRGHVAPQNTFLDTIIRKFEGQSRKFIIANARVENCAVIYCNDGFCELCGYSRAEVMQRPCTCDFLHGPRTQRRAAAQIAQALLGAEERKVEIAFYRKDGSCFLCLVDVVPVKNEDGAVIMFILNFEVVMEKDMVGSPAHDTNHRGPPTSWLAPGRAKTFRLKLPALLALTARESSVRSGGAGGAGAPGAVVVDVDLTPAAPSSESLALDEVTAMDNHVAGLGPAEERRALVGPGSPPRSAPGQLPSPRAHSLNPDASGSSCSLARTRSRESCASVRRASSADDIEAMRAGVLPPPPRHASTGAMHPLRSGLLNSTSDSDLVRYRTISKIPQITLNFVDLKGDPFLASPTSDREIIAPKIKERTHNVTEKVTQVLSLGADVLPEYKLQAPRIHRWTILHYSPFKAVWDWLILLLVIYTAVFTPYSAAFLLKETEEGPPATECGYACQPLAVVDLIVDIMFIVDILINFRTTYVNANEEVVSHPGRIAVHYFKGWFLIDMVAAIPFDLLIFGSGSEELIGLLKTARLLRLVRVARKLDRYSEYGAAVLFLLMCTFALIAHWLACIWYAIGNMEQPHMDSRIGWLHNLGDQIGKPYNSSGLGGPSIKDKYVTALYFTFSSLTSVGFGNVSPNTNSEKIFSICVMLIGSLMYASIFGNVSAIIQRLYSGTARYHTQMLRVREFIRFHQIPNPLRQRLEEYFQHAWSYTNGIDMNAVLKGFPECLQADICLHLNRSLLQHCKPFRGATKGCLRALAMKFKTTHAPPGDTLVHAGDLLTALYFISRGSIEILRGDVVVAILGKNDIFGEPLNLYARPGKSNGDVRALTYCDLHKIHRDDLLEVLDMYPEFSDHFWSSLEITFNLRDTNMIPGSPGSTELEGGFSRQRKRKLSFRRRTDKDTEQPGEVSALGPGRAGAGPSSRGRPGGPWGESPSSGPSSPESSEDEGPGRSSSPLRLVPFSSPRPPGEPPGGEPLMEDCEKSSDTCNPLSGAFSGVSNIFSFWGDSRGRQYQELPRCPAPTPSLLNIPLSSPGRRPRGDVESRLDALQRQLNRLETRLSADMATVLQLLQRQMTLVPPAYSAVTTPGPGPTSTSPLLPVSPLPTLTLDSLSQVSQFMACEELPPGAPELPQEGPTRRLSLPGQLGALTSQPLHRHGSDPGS

Sequence of Metabotropic glutamate receptor 5 (Rattus norvegicus) (P31424 21-1203 limits assumed): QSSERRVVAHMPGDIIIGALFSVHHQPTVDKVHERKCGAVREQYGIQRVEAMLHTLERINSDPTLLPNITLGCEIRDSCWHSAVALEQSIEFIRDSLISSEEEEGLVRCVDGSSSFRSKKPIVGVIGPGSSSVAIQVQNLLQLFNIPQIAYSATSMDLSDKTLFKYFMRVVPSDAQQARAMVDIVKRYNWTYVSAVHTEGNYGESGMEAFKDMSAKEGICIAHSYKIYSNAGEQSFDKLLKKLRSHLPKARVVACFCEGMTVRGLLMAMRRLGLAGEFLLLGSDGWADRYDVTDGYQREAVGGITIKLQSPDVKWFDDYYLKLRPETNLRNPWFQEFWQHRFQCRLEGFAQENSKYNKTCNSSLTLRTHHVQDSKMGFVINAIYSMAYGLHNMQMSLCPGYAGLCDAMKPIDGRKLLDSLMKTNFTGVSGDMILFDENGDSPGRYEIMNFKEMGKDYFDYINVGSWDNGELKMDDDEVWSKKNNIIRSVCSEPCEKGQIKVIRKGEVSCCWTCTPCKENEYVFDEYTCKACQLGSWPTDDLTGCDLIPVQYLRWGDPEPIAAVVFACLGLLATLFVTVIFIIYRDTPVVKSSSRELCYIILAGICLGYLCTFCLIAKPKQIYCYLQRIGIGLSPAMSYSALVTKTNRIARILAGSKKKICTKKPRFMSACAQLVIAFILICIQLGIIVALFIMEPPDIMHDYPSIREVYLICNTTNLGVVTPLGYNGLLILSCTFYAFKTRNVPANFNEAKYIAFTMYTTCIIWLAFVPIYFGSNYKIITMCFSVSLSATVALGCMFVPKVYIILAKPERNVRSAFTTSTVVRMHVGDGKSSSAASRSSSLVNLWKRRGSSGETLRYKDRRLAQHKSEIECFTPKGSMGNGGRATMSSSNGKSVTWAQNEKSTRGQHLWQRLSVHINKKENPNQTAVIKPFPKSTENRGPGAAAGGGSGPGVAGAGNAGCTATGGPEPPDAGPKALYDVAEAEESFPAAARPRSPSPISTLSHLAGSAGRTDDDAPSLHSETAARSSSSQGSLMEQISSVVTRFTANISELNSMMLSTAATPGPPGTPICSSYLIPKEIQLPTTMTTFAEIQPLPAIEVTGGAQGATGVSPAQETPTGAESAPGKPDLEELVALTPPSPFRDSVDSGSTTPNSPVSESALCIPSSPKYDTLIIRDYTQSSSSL

SMILES: CC(C)(C)n1nnc2c1CCC(c1nc(C3CCCCC3)no1)C2 (racemic)
pEC50 [1]: 6.70 | %max [2]: 91%

SMILES: CC1(n2nnc3c2CCC(c2nc(-c4ccc(F)cc4)no2)C3)CCOCC1 (stereo not given)
fold change (FC) [3]: 7 | pEC50 [1]: 8.00 | %max [2]: 103%

SMILES: Fc1ccc(-c2noc(C3CCc4c(nnn4-c4ccc(F)nc4)C3)n2)cc1 (stereo not given)
pEC50 [1]: < 4.60

SMILES: Fc1ccc(-c2noc(C3CCc4c(nnn4C4CCCC4)C3)n2)cc1 (stereo in doubt; 10) [listing 1 of 2 here]
fold change (FC) [3]: 4 | %max [2]: 78%

SMILES: Fc1ccc(-c2noc(C3CCc4c(nnn4C4CCCC4)C3)n2)cc1 (stereo in doubt; 9) [listing 1 of 2 here]
fold change (FC) [3]: 10 | %max [2]: 103%

SMILES: Fc1ccc(-c2nc(-c3ccc4c(c3)nnn4C3CCCC3)no2)cc1
pEC50 [1]: 6.40 | %max [2]: 51%

SMILES: Fc1ccc(-c2noc(C3CCc4c(nnn4C4CCOC4)C3)n2)cc1 (stereo not given)
microsomal CLint at 3 µM [4]: 22 µL/min/mg | fold change (FC) [3]: 4 | pEC50 [1]: 6.40 | %max [2]: 96%

SMILES: Fc1ccc(-c2noc(C3CCc4c(nnn4C4CCCC4)C3)n2)cc1 (stereo in doubt; 9) [listing 2 of 2 here]
microsomal CLint at 3 µM [4]: 146 µL/min/mg | pEC50 [1]: 7.50

SMILES: CC(C)(C)n1nnc2c1CCC(c1nc(N3CCOCC3)no1)C2 (racemic)
pEC50 [1]: 5.90 | %max [2]: 29%

SMILES: CN1CCC(n2nnc3c2CCC(c2nc(-c4ccc(F)cc4)no2)C3)CC1 (racemic)
pEC50 [1]: 5.40 | %max [2]: 91%

SMILES: CC(C)(C)n1nnc2c1CCC(n1cnc(-c3ccc(F)cc3)n1)C2 (stereo not given)
Ratio (MDCK [5]): 0.8 | half-life [6]: 2.9 h | Activity (Homo sapiens [7]): inactive | microsomal CLint at 3 µM [8]: 4 µL/min/mg | minimal effective dose (Rattus norvegicus): 0.3 mg/kg | microsomal CLint at 3 µM [4]: 20 µL/min/mg | fraction unbound [9]: 0.056 | fold change (FC) [3]: 3 | pEC50 [1]: 7.30 | bioavailability [11]: 114% | Kp [12]: 1.4 | solubility kinetic [13]: > 100 µM | Vd [21]: 1.9 L/kg | clearance [22]: 14 mL/min/kg | inhibition (INH) [14]: Not Active | permeability (MDCK [15]): 46 ×10⁻⁶ cm/s | Activity (Homo sapiens [16]): inactive | Cmax [17]: 1950 nM | pIC50 [23]: 5.20 | %max [2]: 80% | Activity (Homo sapiens [19]): inactive | Tmax [20]: 2.7 h

SMILES: Cc1ccc(-c2noc(C3CCc4c(nnn4C(C)(C)C)C3)n2)cn1 (racemic)
pEC50 [1]: 5.80 | %max [2]: 67%

SMILES: Fc1ccc(-c2noc(C3CCc4c(nnn4C4CCCC4)C3)n2)cc1 (stereo in doubt; 10) [listing 2 of 2 here]
pEC50 [1]: 6.40

SMILES: Fc1ccc(-c2noc(C3CCc4c(nnn4-c4ccc(F)cc4)C3)n2)cc1 (stereo not given)
fraction unbound [9]: 0.003 | fold change (FC) [3]: 3 | pEC50 [1]: 7.80 | Kinetic_solubility ([13]; buffer): Insoluble | %max [2]: 106%

SMILES: CC(C)Cc1noc(C2CCc3c(nnn3C(C)(C)C)C2)n1 (racemic)
pEC50 [1]: 6.00 | %max [2]: 66%

Continued, in another order:

fold change (FC) [3]: 8 | pEC50 [1]: 7.50 | %max [2]: 108%
SMILES: CC(C)(C)Cn1nnc2c1CCC(c1nc(-c3ccc(F)cc3)no1)C2 (stereo not given)

microsomal CLint at 3 µM [4]: 120 µL/min/mg | fold change (FC) [3]: 7 | pEC50 [1]: 7.70 | %max [2]: 77%
SMILES: CC(C)(C)n1nnc2c1CCC(c1nc(Cc3ccc(F)cc3)no1)C2 (stereo not given)

pEC50 [1]: 5.50 | %max [2]: 53%
SMILES: CC(C)(C)n1nnc2c1CCC(c1nnc(-c3ccc(F)cc3)o1)C2 (racemic)

pEC50 [1]: 6.00 | %max [2]: 68%
SMILES: CN(C)c1ccc(-c2noc(C3CCc4c(nnn4C(C)(C)C)C3)n2)cc1 (racemic)

fold change (FC) [3]: 5 | pEC50 [1]: 8.30 | %max [2]: 85%
SMILES: CC(C)(C)n1nnc2c1CCC(c1noc(-c3ccc(F)cc3)n1)C2 (stereo not given)

Ratio (MDCK [5]): 0.6 | half-life [6]: 7 h | Activity (Homo sapiens [7]): inactive | microsomal CLint at 3 µM [8]: 9 µL/min/mg | microsomal CLint at 3 µM [4]: 6 µL/min/mg | fraction unbound [9]: 0.015 | clearance [10]: 4 mL/min/kg | fold change (FC) [3]: 3 | pEC50 [1]: 7.80 | bioavailability [11]: 45% | Kp [12]: 3.2 | solubility kinetic [13]: 5.6 µM (≈ 1.97 µg/mL) | inhibition (INH) [14]: Not Active | permeability (MDCK [15]): 43 ×10⁻⁶ cm/s | Activity (Homo sapiens [16]): inactive | Cmax [17]: 891 nM | %max [2]: 71% | Vd [18]: 2.5 L/kg | Activity (Homo sapiens [19]): inactive | Tmax [20]: 6 h
SMILES: CC(C)(C#N)n1nnc2c1CCC(c1nc(-c3ccc(F)cc3)no1)C2 (stereo not given)
LED (Rattus norvegicus): 0.03 mg/kg

Ratio (MDCK [5]): 0.8 | half-life [6]: 6.5 h | Activity (Homo sapiens [7]): inactive | microsomal CLint at 3 µM [8]: 18 µL/min/mg | microsomal CLint at 3 µM [4]: 20 µL/min/mg | fraction unbound [9]: 0.013 | fold change (FC) [3]: 4 | pEC50 [1]: 8.30 | bioavailability [11]: 46% | Kp [12]: 2 | solubility kinetic [13]: 6 µM (≈ 2.05 µg/mL) | Vd [21]: 4.3 L/kg | clearance [22]: 11 mL/min/kg | inhibition (INH) [14]: Not Active | permeability (MDCK [15]): 42 ×10⁻⁶ cm/s | Activity (Homo sapiens [16]): inactive | Cmax [17]: 438 nM | %max [2]: 98% | Activity (Homo sapiens [19]): inactive | Tmax [20]: 4 h
SMILES: CC(C)(C)n1nnc2c1CCC(c1nc(-c3ccc(F)cc3)no1)C2 (stereo not given)
minimal effective dose (Rattus norvegicus): 0.3 mg/kg

pEC50 [1]: 6.40 | %max [2]: 98%
SMILES: CC(C)n1nnc2c1CCC(c1nc(-c3ccc(F)cc3)no1)C2 (racemic)

fold change (FC) [3]: 6 | pEC50 [1]: 7.10 | %max [2]: 87%
SMILES: CC(C)(C)n1nnc2c1CCC(c1nc(-c3ccc(C#N)cc3)no1)C2 (stereo not given)

Source: ChEMBL document CHEMBL3734684, “Identification and optimisation of a series of tetrahydrobenzotriazoles as metabotropic glutamate receptor 5-selective positive allosteric modulators that improve performance in a preclinical model of cognition” (Bioorg Med Chem Lett, 2015)
